molecular target: SIK2 (Homo sapiens (Human), UniProt Q9H0K1); test: SIK2 Enzymatic Assay Version 2 (High ATP); type: biochemical; details: 3 mM ATP and 200 μM HDAC5tide final, ADP-Glo Max luminescence
How it was run: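 Luminescent ADP-Glo Max read-out: depletion reagent 2 h, then detection reagent 1 h. Before the reaction, compounds were incubated 30 min with enzyme added at 6 nM (twice final concentration), with all steps at room temperature.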

Chain of SIK2 (Q9H0K1 whole entry, species assumed): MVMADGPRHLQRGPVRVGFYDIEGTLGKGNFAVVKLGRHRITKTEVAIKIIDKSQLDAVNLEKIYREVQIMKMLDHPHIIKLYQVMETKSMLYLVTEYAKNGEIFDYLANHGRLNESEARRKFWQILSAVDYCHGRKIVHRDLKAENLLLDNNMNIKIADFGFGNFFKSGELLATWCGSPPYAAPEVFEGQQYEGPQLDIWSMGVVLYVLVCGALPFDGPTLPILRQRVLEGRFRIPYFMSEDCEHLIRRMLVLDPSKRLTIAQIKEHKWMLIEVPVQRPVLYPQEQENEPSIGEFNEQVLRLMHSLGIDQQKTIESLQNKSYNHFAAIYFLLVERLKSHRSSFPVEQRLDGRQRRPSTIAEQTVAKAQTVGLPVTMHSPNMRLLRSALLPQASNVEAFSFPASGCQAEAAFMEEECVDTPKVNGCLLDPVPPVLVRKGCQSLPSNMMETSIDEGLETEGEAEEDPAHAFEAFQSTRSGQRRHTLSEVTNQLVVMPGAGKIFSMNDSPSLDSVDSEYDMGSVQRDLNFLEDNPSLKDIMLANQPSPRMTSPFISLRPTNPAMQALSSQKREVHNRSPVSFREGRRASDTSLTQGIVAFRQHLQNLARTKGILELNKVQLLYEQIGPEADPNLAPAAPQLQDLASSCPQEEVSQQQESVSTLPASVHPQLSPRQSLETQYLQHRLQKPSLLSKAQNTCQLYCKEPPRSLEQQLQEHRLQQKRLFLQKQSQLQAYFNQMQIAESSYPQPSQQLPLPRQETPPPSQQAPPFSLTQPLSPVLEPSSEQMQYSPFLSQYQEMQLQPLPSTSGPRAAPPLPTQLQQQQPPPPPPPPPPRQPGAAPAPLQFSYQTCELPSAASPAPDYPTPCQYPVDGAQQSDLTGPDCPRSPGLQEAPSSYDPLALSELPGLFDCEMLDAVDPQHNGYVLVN

**Q.** Which IC50 does the source give for `CN1[C@@H]2COC[C@H]1C[C@@H](OCc1cnn(C)c1-c1ccn3nc(NC(=O)C4CC4)cc3c1)C2` [Example 185, N-[5-[2-methyl-4-[[(1S,5R)-9-methyl-3-oxa-9-azabicyclo[3.3.1]nonan-7-yl]oxymethyl]pyrazol-3-yl]pyrazolo[1,5-a]pyridin-2-yl]cyclopropanecarboxamide] here?
**A.** 18.3 nM

**Q.** Which IC50 does the source give for `Cn1ncc(COC2(C(F)(F)F)CNC2)c1-c1ccn2nc(NC(=O)C3CC3)cc2c1` [Example 186, N-[5-[2-methyl-4-[[3-(trifluoromethyl)azetidin-3-yl]oxymethyl]pyrazol-3-yl]pyrazolo[1,5-a]pyridin-2-yl]cyclopropanecarboxamide] here?
**A.** 7.3 nM

**Q.** `C[C@@H]1NC[C@H]1OCc1cnn(C)c1-c1ccn2nc(NC(=O)C3CC3)cc2c1` [Example 187, N-[5-[2-methyl-4-[[(2S,3R)-2-methylazetidin-3-yl]oxymethyl]pyrazol-3-yl]pyrazolo[1,5-a]pyridin-2-yl]cyclopropanecarboxamide] was tested. Which IC50 did it give?
**A.** 23.5 nM

**Q.** `Cn1ncc(CO[C@@H]2CNC[C@@H]2F)c1-c1ccn2nc(NC(=O)C3CC3)cc2c1` [Example 188, N-[5-[4-[[(3R,4S)-4-fluoropyrrolidin-3-yl]oxymethyl]-2-methyl-pyrazol-3-yl]pyrazolo[1,5-a]pyridin-2-yl]cyclopropanecarboxamide] was tested. Which IC50 did it give?
**A.** 7.7 nM

**Q.** With `C[C@H]1[C@H](OCc2cnn(C)c2-c2ccn3nc(NC(=O)C4CC4)cc3c2)CN1C` [Example 190, N-[5-[4-[[(2S,3R)-1,2-dimethylazetidin-3-yl]oxymethyl]-2-methyl-pyrazol-3-yl]pyrazolo[1,5-a]pyridin-2-yl]cyclopropanecarboxamide] as the compound, how does the IC50 read?
**A.** 26.5 nM

**Q.** With `Cn1ncc(COC2(C)CNC2)c1-c1ccn2nc(NC(=O)C3CC3)cc2c1` [Example 191, N-[5-[2-methyl-4-[(3-methylazetidin-3-yl)oxymethyl]pyrazol-3-yl]pyrazolo[1,5-a]pyridin-2-yl]cyclopropanecarboxamide] as the compound, how does the IC50 read?
**A.** 11.3 nM

**Q.** `CN1CC(C)(OCc2cnn(C)c2-c2ccn3nc(NC(=O)C4CC4)cc3c2)C1` [Example 192, N-[5-[4-[(1,3-dimethylazetidin-3-yl)oxymethyl]-2-methyl-pyrazol-3-yl]pyrazolo[1,5-a]pyridin-2-yl]cyclopropanecarboxamide] was tested. Which IC50 did it give?
**A.** 19.6 nM

**Q.** With `CCC1(OCc2cnn(C)c2-c2ccn3nc(NC(=O)C4CC4)cc3c2)CNC1` [Example 193, N-[5-[4-[(3-ethylazetidin-3-yl)oxymethyl]-2-methyl-pyrazol-3-yl]pyrazolo[1,5-a]pyridin-2-yl]cyclopropanecarboxamide] as the compound, how does the IC50 read?
**A.** 21.2 nM

**Q.** Which IC50 does the source give for `Cc1onc(OCC2(C(N)=O)CNC2)c1-c1ccn2nc(NC(=O)C3CC3)cc2c1` [Example 198, 3-[[4-[2-(cyclopropanecarbonylamino)pyrazolo[1,5-a]pyridin-5-yl]-5-methyl-isoxazol-3-yl]oxymethyl]azetidine-3-carboxamide] here?
**A.** 28.7 nM

**Q.** `Cc1onc(OCC2(c3ccccc3)CNC2)c1-c1ccn2nc(NC(=O)C3CC3)cc2c1` [Example 199, N-[5-[5-methyl-3-[(3-phenylazetidin-3-yl)methoxy]isoxazol-4-yl]pyrazolo[1,5-a]pyridin-2-yl]cyclopropanecarboxamide] was tested. Which IC50 did it give?
**A.** 14.1 nM

**Q.** `Cc1onc(OC[C@@]23CN[C@@H](CO2)C3)c1-c1ccn2nc(NC(=O)C3CC3)cc2c1` [Example 201, N-[5-[5-methyl-3-[[(1R,4R)-5-oxa-2-azabicyclo[2.2.1]heptan-4-yl]methoxy]isoxazol-4-yl]pyrazolo[1,5-a]pyridin-2-yl]cyclopropanecarboxamide] was tested. Which IC50 did it give?
**A.** 42.1 nM

**Q.** With `Cc1onc(OC[C@@]23C[C@@H](CO2)N(C)C3)c1-c1ccn2nc(NC(=O)C3CC3)cc2c1` [Example 203, N-[5-[5-methyl-3-[[(1S,4S)-2-methyl-5-oxa-2-azabicyclo[2.2.1]heptan-4-yl]methoxy]isoxazol-4-yl]pyrazolo[1,5-a]pyridin-2-yl]cyclopropanecarboxamide] as the compound, how does the IC50 read?
**A.** 27.4 nM

**Q.** With `Cc1onc(OC[C@H](N)c2ccccc2)c1-c1ccn2nc(NC(=O)C3CC3)cc2c1` [Example 204, N-[5-[3-[(2R)-2-amino-2-phenyl-ethoxy]-5-methyl-isoxazol-4-yl]pyrazolo[1,5-a]pyridin-2-yl]cyclopropanecarboxamide] as the compound, how does the IC50 read?
**A.** 17.4 nM

**Q.** `COC1(COc2noc(C)c2-c2ccn3nc(NC(=O)C4CC4)cc3c2)CCNCC1` [Example 206, N-[5-[3-[(4-methoxy-4-piperidyl)methoxy]-5-methyl-isoxazol-4-yl]pyrazolo[1,5-a]pyridin-2-yl]cyclopropanecarboxamide] was tested. Which IC50 did it give?
**A.** 35 nM

**Q.** For `Cc1onc(OC[C@H](c2ccccc2)N(C)C)c1-c1ccn2nc(NC(=O)C3CC3)cc2c1` [Example 207, N-[5-[3-[(2S)-2-(dimethylamino)-2-phenyl-ethoxy]-5-methyl-isoxazol-4-yl]pyrazolo[1,5-a]pyridin-2-yl]cyclopropanecarboxamide], which IC50 is on record?
**A.** 7.6 nM

**Q.** `Cc1onc(OC[C@H]2CCN2CC#N)c1-c1ccn2nc(NC(=O)C3CC3)cc2c1` [Example 213, N-[5-[3-[[(2R)-1-(cyanomethyl)azetidin-2-yl]methoxy]-5-methyl-isoxazol-4-yl]pyrazolo[1,5-a]pyridin-2-yl]cyclopropanecarboxamide] was tested. Which IC50 did it give?
**A.** 15.3 nM

**Q.** For `Cc1onc(OC[C@H]2CN(C)CC(C)(C)O2)c1-c1ccn2nc(NC(=O)C3CC3)cc2c1` [Example 214, N-[5-[5-methyl-3-[[(2R)-4,6,6-trimethylmorpholin-2-yl]methoxy]isoxazol-4-yl]pyrazolo[1,5-a]pyridin-2-yl]cyclopropanecarboxamide], which IC50 is on record?
**A.** 15.8 nM

**Q.** Which IC50 does the source give for `Cc1onc(OC[C@@H](N)c2ccccc2F)c1-c1ccn2nc(NC(=O)C3CC3)cc2c1` [Example 220, N-[5-[3-[(2S)-2-amino-2-(2-fluorophenyl)ethoxy]-5-methyl-isoxazol-4-yl]pyrazolo[1,5-a]pyridin-2-yl]cyclopropanecarboxamide] here?
**A.** 4.9 nM

**Q.** How did the IC50 turn out when `Cc1onc(OC[C@H](N)c2ccccc2F)c1-c1ccn2nc(NC(=O)C3CC3)cc2c1` [Example 221, N-[5-[3-[(2R)-2-amino-2-(2-fluorophenyl)ethoxy]-5-methyl-isoxazol-4-yl]pyrazolo[1,5-a]pyridin-2-yl]cyclopropanecarboxamide] was run?
**A.** 23.2 nM

**Q.** With `Cc1onc(OC[C@@H](c2ccccc2F)N(C)C)c1-c1ccn2nc(NC(=O)C3CC3)cc2c1` [Example 222, N-[5-[3-[(2R)-2-(dimethylamino)-2-(2-fluorophenyl)ethoxy]-5-methyl-isoxazol-4-yl]pyrazolo[1,5-a]pyridin-2-yl]cyclopropanecarboxamide] as the compound, how does the IC50 read?
**A.** 27.5 nM

**Q.** Which IC50 does the source give for `Cc1onc(OC[C@@H](N)c2ccccn2)c1-c1ccn2nc(NC(=O)C3CC3)cc2c1` [Example 223, N-[5-[3-[(2S)-2-amino-2-(2-pyridyl)ethoxy]-5-methyl-isoxazol-4-yl]pyrazolo[1,5-a]pyridin-2-yl]cyclopropanecarboxamide] here?
**A.** 30.7 nM

**Q.** For `CN[C@H](COc1noc(C)c1-c1ccn2nc(NC(=O)C3CC3)cc2c1)c1ccccn1` [Example 224, N-[5-[5-methyl-3-[(2S)-2-(methylamino)-2-(2-pyridyl)ethoxy]isoxazol-4-yl]pyrazolo[1,5-a]pyridin-2-yl]cyclopropanecarboxamide], which IC50 is on record?
**A.** 21.4 nM

**Q.** How did the IC50 turn out when `Cc1onc(OC[C@@](C)(N)c2ccccc2)c1-c1ccn2nc(NC(=O)C3CC3)cc2c1` [Example 225, N-[5-[3-[(2S)-2-amino-2-phenyl-propoxy]-5-methyl-isoxazol-4-yl]pyrazolo[1,5-a]pyridin-2-yl]cyclopropanecarboxamide] was run?
**A.** 12 nM

**Q.** With `Cc1onc(OC[C@](C)(c2ccccc2)N(C)C)c1-c1ccn2nc(NC(=O)C3CC3)cc2c1` [Example 226, N-[5-[3-[(2S)-2-(dimethylamino)-2-phenyl-propoxy]-5-methyl-isoxazol-4-yl]pyrazolo[1,5-a]pyridin-2-yl]cyclopropanecarboxamide] as the compound, how does the IC50 read?
**A.** 12.8 nM

**Q.** Which IC50 does the source give for `Cc1onc(O[C@@H]2CN[C@@H]3CCCO[C@@H]32)c1-c1ccn2nc(NC(=O)C3CC3)cc2c1` [Example 227, (3R, 3aS, 7aR)—N-[5-[3-(1,2,3,3a,5,6,7,7a-octahydropyrano[3,2-b]pyrrol-3-yloxy)-5-methyl-isoxazol-4-yl]pyrazolo[1,5-a]pyridin-2-yl]cyclopropanecarboxamide] here?
**A.** 34.9 nM

**Q.** For `Cn1ncc(OC[C@@H]2CCNC2)c1-c1ccn2nc(NC(=O)C3CC3)cc2c1` [Example 229, N-[5-[2-methyl-4-[[(3R)-pyrrolidin-3-yl]methoxy]pyrazol-3-yl]pyrazolo[1,5-a]pyridin-2-yl]cyclopropanecarboxamide], which IC50 is on record?
**A.** 23.8 nM

**Q.** `Cn1ncc(OC[C@@H]2CNCCO2)c1-c1ccn2nc(NC(=O)C3CC3)cc2c1` [Example 230, N-[5-[2-methyl-4-[[(2S)-morpholin-2-yl]methoxy]pyrazol-3-yl]pyrazolo[1,5-a]pyridin-2-yl]cyclopropanecarboxamide] was tested. Which IC50 did it give?
**A.** 41.8 nM

**Q.** How did the IC50 turn out when `Cn1ncc(OCC2(N)CCC2)c1-c1ccn2nc(NC(=O)C3CC3)cc2c1` [Example 231, N-[5-[4-[(1-aminocyclobutyl)methoxy]-2-methyl-pyrazol-3-yl]pyrazolo[1,5-a]pyridin-2-yl]cyclopropanecarboxamide] was run?
**A.** 46.9 nM

**Q.** `C[C@@H]1C[C@H](Oc2cnn(C)c2-c2ccn3nc(NC(=O)C4CC4)cc3c2)CN1` [Example 233, N-[5-[2-methyl-4-[(3S,5R)-5-methylpyrrolidin-3-yl]oxy-pyrazol-3-yl]pyrazolo[1,5-a]pyridin-2-yl]cyclopropanecarboxamide] was tested. Which IC50 did it give?
**A.** 30.2 nM

**Q.** How did the IC50 turn out when `Cn1ncc(OC[C@@]23CN[C@@H](CO2)C3)c1-c1ccn2nc(NC(=O)C3CC3)cc2c1` [Example 234, N-[5-[2-methyl-4-[[(1R,4R)-5-oxa-2-azabicyclo[2.2.1]heptan-4-yl]methoxy]pyrazol-3-yl]pyrazolo[1,5-a]pyridin-2-yl]cyclopropanecarboxamide] was run?
**A.** 1.1 nM

**Q.** For `Cn1ncc(OC[C@@H](N)c2ccccc2)c1-c1ccn2nc(NC(=O)C3CC3)cc2c1` [Example 235, N-[5-[4-[(2S)-2-amino-2-phenyl-ethoxy]-2-methyl-pyrazol-3-yl]pyrazolo[1,5-a]pyridin-2-yl]cyclopropanecarboxamide], which IC50 is on record?
**A.** < 0.847 nM
